For the experiment, the system named is MV-4-11. Kind of experiment: CellTiter-Glo (CTG) cell proliferation experiment. Type of experiment: cell-based. The following applies: Homo sapiens, MV4-11, TP53 wt, FLT3-ITD, 72 hours, read-out: IC50 values, nM (Mean ± SD, n = 2 or 3). For orientation: In ATP-based viability assays light output follows the ATP content of the culture.

As usually defined, the IC50 is the concentration at which inhibition is half-maximal.

With `CCN1[C@@H](C(=O)NC23CCC(C(=O)O)(CC2)CC3)[C@H](c2cccc(Cl)c2F)[C@]2(C(=O)Nc3cc(Cl)ccc32)C12CCCCC2` [Compound 2], the IC50 was determined as 166 ± 42.4 nM.

For the origin of these results see US12194024B2, “Pharmaceutical composition of MDM2 inhibitor and use thereof for preventing and/or treating disease” (ASCENTAGE PHARMA (SUZHOU) CO., LTD., priority 2019, dated 2025).
